From patent publication US9649313B2, “Use of ITK inhibitors for the treatment of cancer” (The University of North Carolina at Chapel Hill, priority 2012, dated 2017)

Tests used:
[1] = tested on: VMM 39 (ITKHI) cells; test: cell cycle analysis (EdU, FxCycle Violet); assay type: cell-based, Human; conditions: 3 days of treatment, dose-dependent
Experimental: (§1) FIG. 5A-5C. Effects of BI 10N inhibitor on proliferation and motility of melanoma cells. FIG. 5A) Cell motility assays were performed as described in FIG. 4A-4E; however, the inhibitor BI 10N was added to the media to decrease ITK kinase activity in parental cell lines instead of using the shRNA ITK knockdown cell lines. BI 10N was added to the media 24 hours prior to the start of the motility assay and the VivaView camera system was used to image cellular motility of the melanoma cells as described previously. FIG. 5B) The proliferation assays were completed as described in FIG. 4A-4E, substituting the BI 10N compound for the shRNA. Cells were trypsinized and counted using the Invitrogen Countess. Fifty thousand cells were placed into each well of a 6 well plate and BI 10N was added to the indicated concentrations. The cells were counted with the Invitrogen Countess at 3, 5, and 6 or 7 days after plating to assess the proliferation rates of the different cell lines in the presence of BI 10N. FIG. 5C) Both ITKHI (RPMI 8322) and ITKLO (PMWK) melanoma cell lines were grown in the presence of BI 10N (10-200 nM) in soft agar. In 24-well cell culture plates 2,500 cells per well were added to a 1.4% agarose solution. The agarose and cell solution was then poured on top of a solidified base agar. The cells were incubated at 37° C. for three to four weeks to ensure adequate growth before analysis. FIG. 5D) Cell cycle analysis of PMWK, VMM 39, and RPMI 8322 cells that have been treated with increasing concentrations of BI 10N. Following 3 days of BI 10N treatment, the cells were incubated with EdU for 3 hours and were subsequently assessed for 5-ethynyl-2′-deoxyuridine (EdU) incorporation rate and DNA content with FxCycle Violet. Shown in this panel are the percentages of cells in G0/G1 (low DNA and EdU content), S (high EdU and low-to-medium DNA content), and G2/M (Low EdU and high DNA content)
(§2) Melanoma cells were grown to approximately 60% confluence in T25 tissue culture flasks (Corning Product #430639). […]

[2] = tested on: RPMI 8322 (ITKHI) cells; test: cell cycle analysis (EdU, FxCycle Violet); assay type: cell-based, Human; conditions: 3 days of treatment, dose-dependent
Experimental: as §1, §2

[3] = tested on: PMWK (ITKLO) cells; test: cell cycle analysis (EdU, FxCycle Violet); assay type: cell-based, Human; conditions: 3 days of treatment
Experimental: as §1, §2

[4] = tested on: SKMEL 153 (ITKHI) melanoma cell line; test: proliferation assay (cell counts); assay type: cell-based, Human; conditions: 50 nM
Experimental: as §1, with “Shown in this panel are the percentages of cells in G0/G1 (low DNA and EdU content), S (high EdU and low-to-medium DNA content), and G2/M (Low EdU and high DNA content)” left out
(§3) Human melanoma cell lines were plated onto 10 cm^2 6 well dishes at a density of 50,000 cells per well. […] Five hundred […] of media was added to the cell suspension, the cells were removed from the well and then counted using the Countess® Automated Cell Counter from Life Technologies (cat #C10227). […]

[5] = tested on: SKMEL 131 (ITKLO) melanoma cell line; test: proliferation assay (cell counts); assay type: cell-based, Human; conditions: inhibitor as high as 150 nM
Experimental: as §1, with “Shown in this panel are the percentages of cells in G0/G1 (low DNA and EdU content), S (high EdU and low-to-medium DNA content), and G2/M (Low EdU and high DNA content)” left out
as §3

[6] = tested on: A375 (ITKINT) melanoma cell line; test: proliferation assay (cell counts); assay type: cell-based, Human; conditions: 50 nM
Experimental: as §1, with “Shown in this panel are the percentages of cells in G0/G1 (low DNA and EdU content), S (high EdU and low-to-medium DNA content), and G2/M (Low EdU and high DNA content)” left out
as §3

[7] = tested on: A375 (ITKINT) xenograft tumors; test: melanoma xenograft mouse model; assay type: in vivo, nude mice; conditions: 15 mg per kg in food
Experimental: (§4) FIG. 6A-6F. Effects of BI 10N inhibitor on growth of melanoma xenografts in vivo. FIG. 6A-6C) Cell lines RPMI 8322 (ITKHI), VMM 39 (ITKHI), and A375 (ITKINT) were grown as described previously, suspended in matrigel and injected into the flanks of nude mice as described in the Materials and Methods section. The mice received either BI 10N at a concentration of 15 mpk or no treatment. Mice were then followed to assess the effect of the treatments on tumor progression. FIG. 6D-6F) Effect of BI 10N (15mpk) on tumor growth (mean and standard error of mean) in A375, RPMI 8322, and VMM 39 melanoma xenografts. […] Samples sizes are indicated in parentheses.
(§5) Nude athymic animals were acquired through the UNC Animal Studies Core and are similar to Jackson Labs (strain 000819). Mice were aged to 10 weeks and inoculated in the hind flank with 500K cells suspended in a 50/50 solution of Hank's Solution plus 2% FBS and matrigel (BD cat#356234). Once weekly caliper measurements of the length and width of the tumors were recorded; volume was then calculated using the formula ((L^2)×W)/2. Treatment began when a tumor reached an approximate size of 60 mm^3. Mice received compounds orally via admixture with standard rodent diet (Research Diets, Inc; New Brunswick, N.J.) or the same diet for non-treated mice as per MP1U (mouse phase I unit) protocol (Roberts et al., 2012 Clin Cancer Res 18(19):5290-5303). Tissues were cut in half and either flash frozen and then stored at −80 or formalin-fixed/paraffin embedded.

[8] = tested on: RPMI 8322 (ITKHI) xenograft tumors; test: melanoma xenograft mouse model; assay type: in vivo, nude mice; conditions: RPMI 8322 xenograft; 15 mg per kg in food
Experimental: as §4, §5

[9] = tested on: RPMI 8322 (ITKHI) cell line; test: soft agar assay (anchorage independent growth); assay type: cell-based, Human
Experimental: as §1
(§6) Soft agar assays were performed employing the RPMI 8322, VMM 39, PMWK, and A375 cell lines. In 24-well cell culture plates (BD Falcon), a 2.0% base agar solution in the appropriate cell line media was poured and allowed to solidify. Tissue culture cells were then trypsinized from their flask, counted using the Countess® Automated Cell Counter, and 2,500 cells per well were added to a 1.4% agarose solution then poured on top of the solidified base agar. Each of the […] layers in the culture plate wells contained BI 10N in the indicated concentrations. The cells were incubated at 37° C. for three to four weeks to ensure adequate growth. 3-(4,5-dimethylthiazol-2-yl)-2,5-diphenyltetrazolium bromide (MTT) was then added in order to perform colony counts using Image J photo processing software.

[10] = tested on: PMWK (ITKLO) cell line; test: soft agar assay (anchorage independent growth); assay type: cell-based, Human
Experimental: as §1, §6

[11] = Homo sapiens, 672 h, three to four weeks, read-out: amount needed to decrease the number of colonies formed by 50%

Structure (SMILES): CC(C)C(C)CNCc1ccc2c(c1)[nH]/c(=N\C(=O)c1ccc(C3=CN=NC3)s1)n2CC(C)(C)O (stereo not drawn) [BI 10N]
- cell cycle profile [1]: increased the percentage of cells in the G0/G1 phase and decreased the percentage of cells in the S phase
- cell cycle profile [2]: increased the percentage of cells in the G0/G1 phase and decreased the percentage of cells in the S phase
- cell cycle profile [3]: No cell cycle changes
- increase in doubling time [4]: about 50%
- effect on doubling time [5]: did not increase their doubling time
- effect on proliferation [6]: decreased similarly to the ITKHI cell lines
- tumor growth [7]: did not slow
- tumor growth [8]: significantly slowed
- anchorage-independent growth [9]: strongly decreased
- IC50 [9, 11]: 0.05 µM
- anchorage-independent growth [10]: strongly decreased
- IC50 [10, 11]: 0.025 µM
